The results in this text go back to DBAASP.

Among the test systems are Escherichia coli UB1005; Escherichia coli K88; Staphylococcus aureus; Escherichia coli; Pseudomonas aeruginosa; Candida albicans; Acinetobacter baumannii; Escherichia coli K99; Klebsiella pneumoniae.
What all share (assay): ≥ marks a high value that may be exact or a test limit, other limits are often not marked, values filed in µg/mL are converted to µM
Assay [1] relates to Staphylococcus epidermidis ATCC 12228.
Assay [2] relates to Pseudomonas aeruginosa ATCC 27853.
Assay [3] deals with Salmonella enterica subsp. enterica serovar Typhimurium ATCC 14028.
Assay [4] relates to Escherichia coli CVCC 1515.
In assay [5] the test system is Escherichia coli ATCC 25922.
Assay [6] has as its system Staphylococcus aureus ATCC 29213.
Assay [7] concerns Candida albicans ATCC 90029.
The test system of assay [8] is Pseudomonas aeruginosa PAO1.
Assay [9] has as its system Salmonella enterica subsp. enterica serovar Typhimurium C77-31.
Assay [10] concerns Pseudomonas aeruginosa CICC 21625.
The subject of assay [11] is Pseudomonas aeruginosa CICC 21630.
For assay [12], the system named is Salmonella enterica subsp. enterica serovar Pullorum C79-13.
The test system of assay [13] is Penicillium expansum EPS 26.
Assay [14] concerns Rhizopus stolonifer CECT 2344.
For assay [15], the system named is Xanthomonas vesicatoria 2133-2.
Assay [16] has as its system Aspergillus niger CECT 2694.
Assay [17] concerns Fusarium oxysporum f. sp. lycopersici ATCC 201829.
Assay [18] deals with Pseudomonas syringae EPS 94.
Assay [19] relates to Erwinia amylovora PMV 6076.

Molecules are shown by their SMILES. Converted amounts (≈) assume the structure as drawn.

As to `CC(C)C[C@H](NC(=O)[C@H](Cc1c[nH]c2ccccc12)NC(=O)[C@H](C)NC(=O)[C@H](CCCCN)NC(=O)[C@H](C)NC(=O)[C@H](C)N)C(=O)N[C@@H](CCCCN)C(=O)N[C@@H](CC(C)C)C(=O)N[C@@H](Cc1c[nH]c2ccccc12)C(=O)N[C@@H](C)C(=O)N[C@@H](CCCCN)C(=O)N[C@@H](C)C(=O)N[C@@H](C)C(N)=O` [AAKAWLKLWAKAA], the MIC (in general, the lowest concentration that inhibits growth of the organism) in assay [1] amounted to 64 µM (≈ 91.3 µg/mL); in assay [2], 64 µM (≈ 91.3 µg/mL); in the assay with Escherichia coli UB1005, 16 µM (≈ 22.8 µg/mL); in [3], 32 µM (≈ 45.7 µg/mL); with Escherichia coli K88 it was 8 µM (≈ 11.4 µg/mL); in assay [4], 16 µM (≈ 22.8 µg/mL). Moreover, the minimum inhibitory concentration (MIC) in assay [5] amounted to 2 µM (≈ 2.85 µg/mL); in assay [6], 64 µM (≈ 91.3 µg/mL).

For `CC(C)C[C@H](NC(=O)[C@H](CCCN=C(N)N)NC(=O)[C@H](Cc1cnc[nH]1)NC(=O)[C@H](CCCN=C(N)N)NC(=O)[C@H](CC(C)C)NC(=O)[C@H](CC(C)C)NC(=O)[C@@H](N)CCCCN)C(=O)N[C@@H](CC(C)C)C(=O)N[C@H](C(=O)N[C@H](C(=O)N[C@@H](CC(C)C)C(=O)N[C@@H](C)C(=O)O)[C@@H](C)O)C(C)C` [KLLRHRLLVTLA], the minimal inhibitory concentration (MIC) was 4.36 µM (≈ 6.25 µg/mL) against Staphylococcus aureus; no less than 69.8 µM in [7]; 4.36 µM (≈ 6.25 µg/mL) in the assay with Escherichia coli; 8.72 µM (≈ 12.5 µg/mL) with Pseudomonas aeruginosa; greater than 69.8 µM in the assay with Candida albicans; 2.18 µM (≈ 3.12 µg/mL) in assay [5]. The MIC in [6] stood at 4.36 µM (≈ 6.25 µg/mL).

Take `CC(C)C[C@H](NC(=O)[C@@H]1CCCN1C(=O)[C@H](CCCN=C(N)N)NC(=O)[C@H](CC(C)C)NC(=O)[C@H](CC(C)C)NC(=O)[C@@H]1CCCN1C(=O)[C@H](CCCN=C(N)N)NC(=O)[C@H](CC(C)C)NC(=O)[C@H](CC(C)C)NC(=O)[C@@H]1CCCN1C(=O)[C@H](CCCN=C(N)N)NC(=O)[C@H](CC(C)C)NC(=O)[C@H](CC(C)C)NC(=O)[C@@H]1CCCN1C(=O)[C@H](CCCN=C(N)N)NC(=O)[C@H](CC(C)C)NC(=O)[C@H](CC(C)C)NC(=O)[C@@H]1CCCN1C(=O)[C@H](CCCN=C(N)N)NC(=O)[C@H](CC(C)C)NC(=O)[C@H](CC(C)C)NC(=O)[C@@H]1CCCN1C(=O)[C@H](CCCN=C(N)N)NC(=O)[C@@H](N)CC(C)C)C(N)=O` [LRPLLRPLLRPLLRPLLRPLLRPL]: the MIC was 4 µM (≈ 11.6 µg/mL) in assay [8]; 2 µM (≈ 5.79 µg/mL) in the assay with Acinetobacter baumannii; 2 µM (≈ 5.79 µg/mL) in the assay with Escherichia coli K99; 8 µM (≈ 23.2 µg/mL) with Klebsiella pneumoniae; 8 µM (≈ 23.2 µg/mL) in [2]; 2 µM (≈ 5.79 µg/mL) in [9]. The MIC with Escherichia coli was 2 µM (≈ 5.79 µg/mL); against Escherichia coli UB1005 it was 2 µM (≈ 5.79 µg/mL); in assay [10], no less than 32 µM; in assay [3], 4 µM (≈ 11.6 µg/mL); in the assay with Escherichia coli K88, 2 µM (≈ 5.79 µg/mL); against Pseudomonas aeruginosa it was 32 µM (≈ 92.6 µg/mL). The figures for the MIC in assay [5], in assay [11] and in [12] were 2 µM (≈ 5.79 µg/mL), 8 µM (≈ 23.2 µg/mL) and 2 µM (≈ 5.79 µg/mL), respectively.

As for `CC(C)C[C@H](NC(=O)[C@@H]1CCCN1C(=O)[C@H](CCCN=C(N)N)NC(=O)[C@H](CC(C)C)NC(=O)[C@H](CC(C)C)NC(=O)[C@@H]1CCCN1C(=O)[C@H](CCCN=C(N)N)NC(=O)[C@H](CC(C)C)NC(=O)[C@H](CC(C)C)NC(=O)[C@@H]1CCCN1C(=O)[C@H](CCCN=C(N)N)NC(=O)[C@H](CC(C)C)NC(=O)[C@H](CC(C)C)NC(=O)[C@@H]1CCCN1C(=O)[C@H](CCCN=C(N)N)NC(=O)[C@H](CC(C)C)NC(=O)[C@H](CC(C)C)NC(=O)[C@@H]1CCCN1C(=O)[C@H](CCCN=C(N)N)NC(=O)[C@@H](N)CC(C)C)C(N)=O` [LRPLLRPLLRPLLRPLLRPL], the MIC came to 32 µM (≈ 77.3 µg/mL) in assay [8]; 2 µM (≈ 4.83 µg/mL) against Acinetobacter baumannii; 4 µM (≈ 9.66 µg/mL) in the assay on Escherichia coli K99; 8 µM (≈ 19.3 µg/mL) in the assay on Klebsiella pneumoniae; 32 µM (≈ 77.3 µg/mL) in assay [2]; 4 µM (≈ 9.66 µg/mL) in assay [9]. For the same compound, the MIC in the assay with Escherichia coli was 4 µM (≈ 9.66 µg/mL); in the assay with Escherichia coli UB1005, 4 µM (≈ 9.66 µg/mL); in assay [10], no less than 32 µM; in assay [3], 4 µM (≈ 9.66 µg/mL); in the assay with Escherichia coli K88 it was 2 µM (≈ 4.83 µg/mL); with Pseudomonas aeruginosa it was 32 µM (≈ 77.3 µg/mL). For the same compound, the MIC worked out at 4 µM (≈ 9.66 µg/mL) in [5], 16 µM (≈ 38.6 µg/mL) in assay [11] and 2 µM (≈ 4.83 µg/mL) in assay [12].

For the compound `CC(C)C[C@H](NC(=O)[C@H](Cc1cnc[nH]1)NC(=O)[C@H](CO)NC(=O)[C@H](C)NC(=O)[C@H](CC(C)C)NC(=O)[C@@H](NC(=O)[C@@H](NC(=O)[C@H](CC(C)C)NC(=O)[C@H](CC(C)C)NC(=O)[C@H](CO)NC(=O)[C@H](Cc1cnc[nH]1)NC(=O)[C@H](CO)NC(=O)[C@H](CC(C)C)NC(=O)[C@H](CC(C)C)NC(=O)[C@H](CCCCN)NC(=O)[C@H](Cc1ccccc1)NC(=O)[C@H](CCCN=C(N)N)NC(=O)[C@@H](N)C(C)C)C(C)C)[C@@H](C)O)C(=O)O` [VRFKLLSHSLLVTLASHL], the MIC in the assay on Staphylococcus aureus turned out to be 3.07 µM (≈ 6.25 µg/mL); in assay [7], 12.3 µM (≈ 25 µg/mL); against Escherichia coli, 6.14 µM (≈ 12.5 µg/mL); in the assay with Pseudomonas aeruginosa, 3.07 µM (≈ 6.25 µg/mL); against Candida albicans, 12.3 µM (≈ 25 µg/mL); in [5] it was 3.07 µM (≈ 6.25 µg/mL). Besides, the MIC in assay [6] came out at 6.14 µM (≈ 12.5 µg/mL).

Turning to `CC[C@H](C)[C@H](NC(=O)[C@H](CCCCN)NC(=O)[C@H](CCCCN)NC(=O)[C@H](Cc1ccccc1)NC(=O)[C@H](CC(C)C)NC(=O)[C@H](CCCCN)NC(=O)[C@@H](N)Cc1c[nH]c2ccccc12)C(=O)N[C@@H](CC(C)C)C(=O)N[C@@H](CCCCN)C(=O)N[C@@H](Cc1ccccc1)C(=O)N[C@@H](CC(C)C)C(N)=O` [WKLFKKILKFL], the MIC is 22.4 µM (≈ 32.7 µg/mL) in [13]; no less than 35.4 µM in assay [14]; 2 µM (≈ 2.93 µg/mL) in [15]; 22.4 µM (≈ 32.7 µg/mL) in assay [16]; 1.73 µM (≈ 2.53 µg/mL) in assay [17]; 5.92 µM (≈ 8.65 µg/mL) in [18]. The MIC in assay [19] was found to be 5.92 µM (≈ 8.65 µg/mL).
